Drawing on PMC7934925, “A GRM7 mutation associated with developmental delay reduces mGlu7 expression and produces neurological phenotypes” (JCI Insight, 2021), this text covers EC50 for one compound.

For one test, the target named is T1, mGlu7 (HA-mGlu7-WT) (Homo sapiens, UniProt Q14831).
T1 construct: gene GRM7; full-length human mGlu7a isoform (NM_000844.4), HA-tagged, stably expressed in HEK/GIRK cells
Kind of test: thallium flux assay (GIRK) in HEK cells stably expressing the receptor, agonist concentration-response. Format: cell-based.

In a further test the target is T2, mGlu7 (HA-mGlu7-I154T) (Homo sapiens, UniProt Q14831, I154T).
T2 construct: gene GRM7; full-length human mGlu7a isoform, HA-tagged, I154T, stably expressed in HEK/GIRK cells
T2 sequence (Q14831 35-915 I154T): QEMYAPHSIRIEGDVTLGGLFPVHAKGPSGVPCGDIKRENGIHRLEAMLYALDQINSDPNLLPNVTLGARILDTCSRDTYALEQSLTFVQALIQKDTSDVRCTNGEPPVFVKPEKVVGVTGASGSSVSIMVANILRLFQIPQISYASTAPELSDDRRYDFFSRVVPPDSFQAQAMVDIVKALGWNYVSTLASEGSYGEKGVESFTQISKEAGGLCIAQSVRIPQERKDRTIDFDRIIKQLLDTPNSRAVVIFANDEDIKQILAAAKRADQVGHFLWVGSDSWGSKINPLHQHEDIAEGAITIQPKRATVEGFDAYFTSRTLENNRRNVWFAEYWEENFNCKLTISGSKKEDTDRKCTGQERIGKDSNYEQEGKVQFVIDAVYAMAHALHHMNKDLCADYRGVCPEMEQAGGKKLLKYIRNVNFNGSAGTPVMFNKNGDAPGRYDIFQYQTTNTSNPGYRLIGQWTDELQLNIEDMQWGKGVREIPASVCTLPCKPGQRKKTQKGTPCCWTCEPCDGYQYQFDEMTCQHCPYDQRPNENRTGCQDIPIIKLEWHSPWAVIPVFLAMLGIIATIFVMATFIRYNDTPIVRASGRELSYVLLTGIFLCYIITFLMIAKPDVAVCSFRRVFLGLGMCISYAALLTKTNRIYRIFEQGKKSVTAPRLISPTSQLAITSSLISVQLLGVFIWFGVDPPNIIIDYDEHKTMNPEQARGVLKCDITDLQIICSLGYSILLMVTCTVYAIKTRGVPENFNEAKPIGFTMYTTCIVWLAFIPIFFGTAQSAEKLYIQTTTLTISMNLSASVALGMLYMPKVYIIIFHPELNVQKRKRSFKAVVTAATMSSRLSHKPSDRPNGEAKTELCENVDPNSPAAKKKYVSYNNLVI
The test is described as above. Format: cell-based.

T1 sequence (Q14831 35-915): as the sequence (Q14831 35-915 I154T) above, with T120I counted along it

As usually defined, the EC50 is the concentration that produces a half-maximal response. Low readings indicate greater potency, high ones weaker potency. Consider `N[C@@H](CCP(=O)(O)O)C(=O)O` [L-AP4], for which the figures for the EC50 at mGlu7 (HA-mGlu7-WT) and at mGlu7 (HA-mGlu7-I154T) were 176 µM and 540 µM, respectively.
